Columns and labels:
somatostatin receptors = conditions: variety of human tumors; cited from earlier work
[1] = Stability (radiochemical purity) of 111In DTPA-octreotide solution at room temperature by reverse-phase HPLC with radiometric detector; format: physicochemical; conditions: alone or in combination with other stabilizers; summary of Examples 1-7
Experimental: To a lyophilized kit containing 10 μg DTPA-octreotide (N-[3,6,9,9-tetrakis(carboxymethyl)-3,6,9-triazanonanoyl]-D-phenylalanyl-L -hemicystyl-L-phenylalanyl-D-tryptophyl-L-lysyl-L-threonyl-L-hemicydyyl-L-t hreoninol cyclic (2→7) disulfide, MW=1394.60 gm/mol), 5.6 mg trisodium citrate dihydrate, and 0.4 mg citric acid monohydrate was added 1.0 ml of 0.02M HCl containing 4.70 mCi of ^111 In. The pH of the solution was 4.5. The solution was kept at room temperature and monitored for the amount of ^111 In DTPA-octreotide using reverse-phase HPLC and a Beckman 170 radiometric detector. […]
To a lyophilized kit containing 10 μg DTPA-octreotide (N-[3,6,9,9-tetrakis(carboxymethyl)-3,6,9-triazanonanoyl]-D-phenylalanyl-L -hemicystyl-L-phenylalanyl-D-tryptophyl-L-lysyl-L-threonyl-L-hemicydyyl-L-t hreoninol cyclic (2→7) disulfide, MW=1394.60 gm/mol), 5.6 mg trisodium citrate dihydrate, 0.4 mg citric acid monohydrate, and 1.0 mg inositol was added 1.0 ml of 0.02M HCl containing 6.04 mCi of ^111 In. […] The solution was kept at room temperature and monitored for the amount of ^111 In DTPA-octreotide using reverse-phase HPLC and a Beckman 170 radiometric detector. […]

| Structure (SMILES) | Binding affinity to somatostatin receptors (somatostatin receptors) | Prevention of radiolysis of radiolabeled peptides (stabilizer effect) [1] |
| --- | --- | --- |
| C[C@@H](O)[C@@H]1NC(=O)[C@H](CCCCN)NC(=O)[C@@H](Cc2c[nH]c3ccccc23)NC(=O)[C@H](Cc2ccccc2)NC(=O)[C@@H](NC(=O)[C@H](N)Cc2ccccc2)CSSC[C@@H](C(=O)N[C@H](CO)[C@@H](C)O)NC1=O [octreotide] | very high binding affinity | – |
| O=C(O)c1cc(O)ccc1O [gentisic acid, 2,5-dihydroxybenzoic acid] | – | very effective at preventing radiolysis |
